“And” between values parts separate entries of the source, which are not always exact repeats. Equal entries are not always repeated.
What was measured:
Test in all cases: PDSP GPCR panel primary binding assays at 10 μM
[1] = biological target: T1, cloned human or rodent CNS receptors, channels, and transporters (PDSP panel) (Homo sapiens, UniProt P11229); conditions: M1, primary assay; for Mean %: mean inhibition; for Inhibition 1: replicate 1; for Inhibition 2: replicate 2; for Inhibition 3: replicate 3; for Inhibition 4: replicate 4
T1 construct: expressed in transfected cells
T1 sequence (P11229 1-460): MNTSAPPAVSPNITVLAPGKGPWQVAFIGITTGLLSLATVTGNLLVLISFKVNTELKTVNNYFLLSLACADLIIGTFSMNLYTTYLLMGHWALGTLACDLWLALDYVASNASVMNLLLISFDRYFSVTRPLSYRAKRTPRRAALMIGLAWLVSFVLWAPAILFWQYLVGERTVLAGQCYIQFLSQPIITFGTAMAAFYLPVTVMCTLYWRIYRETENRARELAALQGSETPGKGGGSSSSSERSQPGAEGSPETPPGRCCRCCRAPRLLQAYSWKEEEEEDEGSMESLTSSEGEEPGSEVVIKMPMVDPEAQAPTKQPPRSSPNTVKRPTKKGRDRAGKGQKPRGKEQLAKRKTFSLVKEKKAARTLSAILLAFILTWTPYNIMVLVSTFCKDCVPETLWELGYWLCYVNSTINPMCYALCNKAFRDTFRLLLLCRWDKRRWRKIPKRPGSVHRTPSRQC
Method in brief: (§1)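 Radioligand displacement at cloned human or rodent CNS targets: 46–47 primary binding assays run in quadruplicate at 10 μM. Targets where the compound displaced an average of >50% of radiolabeled standard ligand went to secondary binding in 11-point dose-response, in triplicate; none run for H3, PBR or GABAA.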

[2] = biological target: T2, cloned human or rodent CNS receptors, channels, and transporters (PDSP panel) (Homo sapiens, UniProt P14416); conditions: D2, primary assay; for Mean %: mean inhibition; for Inhibition 1: replicate 1; for Inhibition 2: replicate 2; for Inhibition 3: replicate 3; for Inhibition 4: replicate 4
T2 construct: expressed in transfected cells
Method in brief: as §1

[3] = biological target: T3, cloned human or rodent CNS receptors, channels, and transporters (PDSP panel) (Homo sapiens, UniProt P21728); conditions: D1, primary assay; for Mean %: mean inhibition; for Inhibition 1: replicate 1; for Inhibition 2: replicate 2; for Inhibition 3: replicate 3; for Inhibition 4: replicate 4
T3 construct: expressed in transfected cells
Method in brief: as §1

[4] = biological target: T4, cloned human or rodent CNS receptors, channels, and transporters (PDSP panel) (Homo sapiens, UniProt P21918); conditions: D5, primary assay; for Mean %: mean inhibition; for Inhibition 1: replicate 1; for Inhibition 2: replicate 2; for Inhibition 3: replicate 3; for Inhibition 4: replicate 4
T4 construct: expressed in transfected cells
Method in brief: as §1

[5] = biological target: T5, cloned human or rodent CNS receptors, channels, and transporters (PDSP panel) (Homo sapiens, UniProt P28223); conditions: 5-HT2A, primary assay; for Mean %: mean inhibition; for Inhibition 1: replicate 1; for Inhibition 2: replicate 2; for Inhibition 3: replicate 3; for Inhibition 4: replicate 4
T5 construct: expressed in transfected cells
Method in brief: as §1

[6] = biological target: T6, cloned human or rodent CNS receptors, channels, and transporters (PDSP panel) (Homo sapiens, UniProt P34969); conditions: 5-HT7A, primary assay; for Mean %: mean inhibition; for Inhibition 1: replicate 1; for Inhibition 2: replicate 2; for Inhibition 3: replicate 3; for Inhibition 4: replicate 4
T6 construct: expressed in transfected cells
Method in brief: as §1

[7] = biological target: T7, cloned human or rodent CNS receptors, channels, and transporters (PDSP panel) (Homo sapiens, UniProt P35367); conditions: H1, primary assay; for Mean %: mean inhibition; for Inhibition 1: replicate 1; for Inhibition 2: replicate 2; for Inhibition 3: replicate 3; for Inhibition 4: replicate 4
T7 construct: expressed in transfected cells
Method in brief: as §1

[8] = biological target: T8, cloned human or rodent CNS receptors, channels, and transporters (PDSP panel) (Homo sapiens, UniProt P41145); conditions: KOR, primary assay; for Mean %: mean inhibition; for Inhibition 1: replicate 1; for Inhibition 2: replicate 2; for Inhibition 3: replicate 3; for Inhibition 4: replicate 4
T8 construct: expressed in transfected cells
Method in brief: as §1

[9] = biological target: T9, cloned human or rodent CNS receptors, channels, and transporters (PDSP panel) (Rattus norvegicus, UniProt P16257); conditions: PBR, primary assay; for Inhibition 1: replicate 1; for Inhibition 2: replicate 2; for Inhibition 3: replicate 3; for Inhibition 4: replicate 4
T9 construct: expressed in transfected cells
Method in brief: as §1

[10] = tested on: cloned human or rodent CNS receptors, channels, and transporters (PDSP panel); conditions: primary assay; for Mean %: mean inhibition; for Inhibition 1: replicate 1; for Inhibition 2: replicate 2; for Inhibition 3: replicate 3; for Inhibition 4: replicate 4
Method in brief: as §1

T8 sequence (P41145 whole entry): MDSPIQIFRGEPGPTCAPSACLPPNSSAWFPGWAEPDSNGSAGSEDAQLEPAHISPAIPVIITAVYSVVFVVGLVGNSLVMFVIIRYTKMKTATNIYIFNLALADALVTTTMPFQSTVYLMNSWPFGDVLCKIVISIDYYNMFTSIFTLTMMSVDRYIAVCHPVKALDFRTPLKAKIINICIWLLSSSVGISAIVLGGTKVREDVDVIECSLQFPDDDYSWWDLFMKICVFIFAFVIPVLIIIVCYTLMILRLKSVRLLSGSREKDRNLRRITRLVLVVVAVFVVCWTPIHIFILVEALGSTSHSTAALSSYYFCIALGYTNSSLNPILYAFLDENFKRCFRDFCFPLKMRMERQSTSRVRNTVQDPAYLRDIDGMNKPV
T3 sequence (P21728 whole entry): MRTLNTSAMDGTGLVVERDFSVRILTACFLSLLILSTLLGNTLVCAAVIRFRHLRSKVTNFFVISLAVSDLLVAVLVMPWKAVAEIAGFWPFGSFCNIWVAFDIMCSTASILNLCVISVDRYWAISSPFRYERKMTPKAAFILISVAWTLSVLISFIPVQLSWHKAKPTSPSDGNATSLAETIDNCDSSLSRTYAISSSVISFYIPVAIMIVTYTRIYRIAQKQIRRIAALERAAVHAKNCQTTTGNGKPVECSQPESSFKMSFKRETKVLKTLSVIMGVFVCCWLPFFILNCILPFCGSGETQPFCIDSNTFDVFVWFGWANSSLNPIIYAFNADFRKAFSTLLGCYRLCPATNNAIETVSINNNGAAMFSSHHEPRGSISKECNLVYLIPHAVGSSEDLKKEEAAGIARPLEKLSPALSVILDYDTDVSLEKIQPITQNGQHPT
T4 sequence (P21918 whole entry): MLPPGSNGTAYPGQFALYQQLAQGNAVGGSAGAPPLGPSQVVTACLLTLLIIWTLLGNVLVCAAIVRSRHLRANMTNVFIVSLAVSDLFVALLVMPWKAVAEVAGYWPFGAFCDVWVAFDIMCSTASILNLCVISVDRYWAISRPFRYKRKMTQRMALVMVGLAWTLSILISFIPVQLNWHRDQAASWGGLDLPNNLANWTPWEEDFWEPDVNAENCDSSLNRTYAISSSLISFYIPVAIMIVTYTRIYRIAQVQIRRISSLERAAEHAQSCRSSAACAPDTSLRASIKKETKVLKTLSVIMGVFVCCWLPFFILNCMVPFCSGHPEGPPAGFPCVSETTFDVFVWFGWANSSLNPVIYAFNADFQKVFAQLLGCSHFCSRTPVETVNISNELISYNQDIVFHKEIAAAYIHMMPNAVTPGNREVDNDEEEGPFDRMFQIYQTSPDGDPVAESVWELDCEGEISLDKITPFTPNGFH
T2 sequence (P14416 whole entry): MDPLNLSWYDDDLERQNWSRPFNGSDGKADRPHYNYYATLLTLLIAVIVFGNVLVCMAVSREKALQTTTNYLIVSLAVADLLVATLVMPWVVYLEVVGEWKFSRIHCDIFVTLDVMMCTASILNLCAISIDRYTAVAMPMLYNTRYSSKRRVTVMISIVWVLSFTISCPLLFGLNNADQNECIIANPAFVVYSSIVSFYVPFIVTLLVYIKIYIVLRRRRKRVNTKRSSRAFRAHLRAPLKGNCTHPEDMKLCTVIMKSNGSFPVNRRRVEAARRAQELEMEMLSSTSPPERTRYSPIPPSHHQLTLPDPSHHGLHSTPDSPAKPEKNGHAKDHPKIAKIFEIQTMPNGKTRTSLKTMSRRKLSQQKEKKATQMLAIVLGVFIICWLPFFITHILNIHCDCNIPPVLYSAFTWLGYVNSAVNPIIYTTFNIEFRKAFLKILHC
T7 sequence (P35367 whole entry): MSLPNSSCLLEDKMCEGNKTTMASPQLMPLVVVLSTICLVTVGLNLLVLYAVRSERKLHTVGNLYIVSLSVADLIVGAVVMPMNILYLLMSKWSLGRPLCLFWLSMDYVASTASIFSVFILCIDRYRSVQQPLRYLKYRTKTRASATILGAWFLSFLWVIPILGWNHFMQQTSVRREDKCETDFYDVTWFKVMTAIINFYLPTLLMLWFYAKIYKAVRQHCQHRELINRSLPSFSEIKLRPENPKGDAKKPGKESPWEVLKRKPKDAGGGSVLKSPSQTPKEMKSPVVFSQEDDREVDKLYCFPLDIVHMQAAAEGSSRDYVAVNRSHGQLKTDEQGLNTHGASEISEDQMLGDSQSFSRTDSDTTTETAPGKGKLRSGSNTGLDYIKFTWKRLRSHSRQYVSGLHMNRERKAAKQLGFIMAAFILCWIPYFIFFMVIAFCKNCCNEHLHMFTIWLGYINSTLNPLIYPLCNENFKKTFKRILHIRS
T5 sequence (P28223 whole entry): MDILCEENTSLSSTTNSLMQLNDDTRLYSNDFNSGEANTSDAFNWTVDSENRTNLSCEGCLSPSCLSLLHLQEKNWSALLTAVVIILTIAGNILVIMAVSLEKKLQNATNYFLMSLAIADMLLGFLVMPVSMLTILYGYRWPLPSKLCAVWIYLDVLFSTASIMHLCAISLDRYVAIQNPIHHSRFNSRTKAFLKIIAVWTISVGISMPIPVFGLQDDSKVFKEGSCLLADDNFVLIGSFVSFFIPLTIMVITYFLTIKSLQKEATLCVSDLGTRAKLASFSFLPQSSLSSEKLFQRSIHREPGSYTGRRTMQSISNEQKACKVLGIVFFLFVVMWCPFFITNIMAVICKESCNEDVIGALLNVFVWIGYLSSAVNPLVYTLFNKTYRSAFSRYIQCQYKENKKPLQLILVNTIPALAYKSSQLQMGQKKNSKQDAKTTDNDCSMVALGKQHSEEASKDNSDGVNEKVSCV
T6 sequence (P34969 whole entry): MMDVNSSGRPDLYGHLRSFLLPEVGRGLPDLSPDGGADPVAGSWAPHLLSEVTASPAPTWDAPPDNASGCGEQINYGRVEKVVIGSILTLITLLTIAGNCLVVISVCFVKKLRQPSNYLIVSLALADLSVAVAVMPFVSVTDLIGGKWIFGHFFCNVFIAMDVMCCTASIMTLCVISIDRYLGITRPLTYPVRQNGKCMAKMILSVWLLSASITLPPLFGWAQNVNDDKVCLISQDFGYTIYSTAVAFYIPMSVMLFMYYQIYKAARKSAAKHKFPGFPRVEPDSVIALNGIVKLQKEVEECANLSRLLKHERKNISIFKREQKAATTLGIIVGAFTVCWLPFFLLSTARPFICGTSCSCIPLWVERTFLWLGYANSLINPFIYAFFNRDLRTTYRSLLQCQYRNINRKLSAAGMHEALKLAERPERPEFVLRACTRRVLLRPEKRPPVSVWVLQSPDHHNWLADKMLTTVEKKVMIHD

## MDL 28170 [UNC10302675A]
[1]
  Mean %: -11.2%
  Inhibition 1: -2.73%
  Inhibition 2: -6.87%
  Inhibition 3: -20.6%
  Inhibition 4: -14.58%
[2]
  Mean %: -18.47%
  Inhibition 1: -14.97%
  Inhibition 2: -19.19%
  Inhibition 3: -16%
  Inhibition 4: -23.71%
[3]
  Mean %: -0.08%
  Inhibition 1: 13.68%
  Inhibition 2: 11.74%
  Inhibition 3: -15.62%
  Inhibition 4: -10.12%
[4]
  Mean %: 3.1%
  Inhibition 1: 35%
  Inhibition 2: -0.46%
  Inhibition 3: -13.75%
  Inhibition 4: -8.4%
[5]
  Mean %: -2.25%
  Inhibition 1: 10.17%
  Inhibition 2: -7.92%
  Inhibition 3: -7.75%
  Inhibition 4: -3.48%
[6]
  Mean %: 12.48%
  Inhibition 1: 4.73%
  Inhibition 2: 10.46%
  Inhibition 3: 19.29%
  Inhibition 4: 15.42%
[7]
  Mean %: 62.36%
  Inhibition 1: 85.46%
  Inhibition 2: 73.14%
  Inhibition 3: 49.84%
  Inhibition 4: 41%
[8]
  Mean %: 8.82%
  Inhibition 1: 3.47%
  Inhibition 2: 2.13%
  Inhibition 3: 10.86%
  Inhibition 4: 18.81%
[9]; mean inhibition
  Mean %: 14.47% and 16.31%
[9]
  Inhibition 1: 31.01% and 31.3%
  Inhibition 2: 3.06% and 12.16%
  Inhibition 3: 7.19% and 13.84%
  Inhibition 4: 16.6% and 7.94%
[10]; Alpha1A
  Mean %: 5.14%
  Inhibition 1: 14.68%
  Inhibition 2: -1.03%
  Inhibition 3: -8.14%
  Inhibition 4: 15.06%
[10]; Alpha2A
  Mean %: -0.83%
  Inhibition 1: 3.33%
  Inhibition 2: -2.81%
  Inhibition 3: -6.74%
  Inhibition 4: 2.9%
[10]; Alpha2C
  Mean %: -3.61%
  Inhibition 1: -3.7%
  Inhibition 2: -0.8%
  Inhibition 3: -1.62%
  Inhibition 4: -8.31%
[10]; BZP Rat Brain Site
  Mean %: 7.23%
  Inhibition 1: 18.74%
  Inhibition 2: 4.91%
  Inhibition 3: -1.16%
  Inhibition 4: 6.42%
[10]; DOR
  Mean %: -10.37%
  Inhibition 1: -5.94%
  Inhibition 2: -12.45%
  Inhibition 3: -15.16%
  Inhibition 4: -7.93%
[10]; GABAA
  Inhibition 1: 16.54% and -28.18%
  Inhibition 2: 2.5% and -11.42%
  Inhibition 3: 1.02% and 0%
  Inhibition 4: 29.11% and -5.47%
[10]; H3
  Mean %: 9.84%
  Inhibition 1: 9.54%
  Inhibition 2: 0.8%
  Inhibition 3: 7.8%
  Inhibition 4: 21.2%
[10]; H4
  Mean %: -7.26%
  Inhibition 1: -26.58%
  Inhibition 2: 0.78%
  Inhibition 3: -5.94%
  Inhibition 4: 2.7%
[10]; Sigma 1
  Mean %: 5.78%
[10]; Sigma 2
  Mean %: 26.55%

## O=C(NC1CC1)C(=O)C(Cc1ccccc1)NC(=O)[C@H]1CCC(=O)N1Cc1ccccc1 (stereo partly drawn) [UNC10302676A, ABT-957 (Alicapistat)]
[1]
  Mean %: -5.83%
  Inhibition 1: 12.89%
  Inhibition 2: -15.33%
  Inhibition 3: -17.78%
  Inhibition 4: -3.1%
[2]
  Mean %: -21.21%
  Inhibition 1: -14.25%
  Inhibition 2: -31.51%
  Inhibition 3: -11.38%
  Inhibition 4: -27.71%
[3]
  Mean %: 0%
  Inhibition 1: 13.52%
  Inhibition 2: -11.9%
  Inhibition 3: -21.45%
  Inhibition 4: 19.83%
[4]
  Mean %: -6.38%
  Inhibition 1: 0%
  Inhibition 2: 3.82%
  Inhibition 3: -18.95%
  Inhibition 4: -10.39%
[5]
  Mean %: 1.79%
  Inhibition 1: 6.22%
  Inhibition 2: 7.05%
  Inhibition 3: 5.57%
  Inhibition 4: -11.7%
[6]
  Mean %: 15.15%
  Inhibition 1: 8.6%
  Inhibition 2: 21.46%
  Inhibition 3: 9.06%
  Inhibition 4: 21.46%
[7]
  Mean %: 47.25%
  Inhibition 1: 60.11%
  Inhibition 2: 50.46%
  Inhibition 3: 44.57%
  Inhibition 4: 33.86%
[8]
  Mean %: -23.29%
  Inhibition 1: -17.69%
  Inhibition 2: -22.73%
  Inhibition 3: -22.5%
  Inhibition 4: -30.23%
[9]
  Inhibition 1: 2.97% and 17.9%
  Inhibition 2: -4.68% and 2.11%
  Inhibition 3: 1.91% and 4.11%
  Inhibition 4: -8.81% and 7.78%
[10]; Alpha1A
  Mean %: -18.33%
  Inhibition 1: -14.03%
  Inhibition 2: -31.43%
  Inhibition 3: -21.43%
  Inhibition 4: -6.43%
[10]; Alpha2A
  Mean %: 5.04%
  Inhibition 1: 2.51%
  Inhibition 2: 2.44%
  Inhibition 3: -2.65%
  Inhibition 4: 17.86%
[10]; Alpha2C
  Mean %: -12.84%
  Inhibition 1: -8.12%
  Inhibition 2: -10.33%
  Inhibition 3: -21.43%
  Inhibition 4: -11.46%
[10]; BZP Rat Brain Site
  Mean %: 3.75%
  Inhibition 1: 19.6%
  Inhibition 2: -1.35%
  Inhibition 3: -4.1%
  Inhibition 4: 0.83%
[10]; DOR
  Mean %: -6.76%
  Inhibition 1: 2.73%
  Inhibition 2: -0.34%
  Inhibition 3: -9.56%
  Inhibition 4: -19.86%
[10]; GABAA
  Inhibition 1: 23.2% and -15.74%
  Inhibition 2: 18.02% and -7.64%
  Inhibition 3: -2.68% and 0%
  Inhibition 4: 4.71% and -21.69%
[10]; H3
  Mean %: -14.21%
  Inhibition 1: -25.14%
  Inhibition 2: -2.99%
  Inhibition 3: -42.04%
  Inhibition 4: 13.33%
[10]; H4
  Mean %: -11.52%
  Inhibition 1: -3.78%
  Inhibition 2: -13.62%
  Inhibition 3: -23.94%
  Inhibition 4: -4.74%
[10]; Sigma 1
  Mean %: -2.52%
[10]; Sigma 2
  Mean %: 7.31%
